Active and inactive are the calls of the source. The rule behind the calls is not given here.
Assays:
[1] = Apparent permeability across apical to basolateral side in human Caco2 cells measured after 90 mins by LC-MS/MS analysis; conditions: Caco-2
[2] = target: PI3-kinase p110-alpha/p85-alpha (Homo sapiens, UniProt P42336); test: Inhibition of recombinant human N-terminal FLAG-tagged full-length p110alpha/human p85alpha expressed in Sf9 insect cells using PIP2 as substrate by kinase-glo assay
[3] = Apparent permeability across basolateral to apical side in human Caco2 cells measured after 90 mins by LC-MS/MS analysis; conditions: Caco-2
[4] = Antifibrotic activity against mouse Mlg2908 cells assessed as reduction in cell viability measured after 72 hrs by MTT assay; format: functional, cell-based
[5] = tested on: Mus musculus; test: (§1) Antifibrotic activity in bleomycin-induced C57BL/6 mouse model of pulmonary fibrosis assessed as reduction in lung index at 30 mg/kg, po administered thrice daily for 18 days starting from 10 days post-bleomycin challenge and measured post last dose; format: functional, organism-based
[6] = tested on: Mus musculus; test: Antifibrotic activity in bleomycin-induced C57BL/6 mouse model of pulmonary fibrosis assessed as reduction in respiratory system compliance at 30 mg/kg, po administered thrice daily for 18 days starting from 10 days post-bleomycin challenge and measured post last dose; format: functional, organism-based
[7] = tested on: Mus musculus; test: Antifibrotic activity in bleomycin-induced C57BL/6 mouse model of pulmonary fibrosis assessed as reduction in respiratory system elastance at 30 mg/kg, po administered thrice daily for 18 days starting from 10 days post-bleomycin challenge and measured post last dose; format: functional, organism-based
[8] = tested on: Mus musculus; test: Antifibrotic activity in bleomycin-induced C57BL/6 mouse model of pulmonary fibrosis assessed as reduction in inspiratory capacity at 30 mg/kg, po administered thrice daily for 18 days starting from 10 days post-bleomycin challenge and measured post last dose; format: functional, organism-based
[9] = tested on: Mus musculus; test: as §1, with “alpha-SMA level” for “index”, “dose by immunostaining-based histopathological analysis” for “dose”; format: functional, organism-based
[10] = tested on: Mus musculus; test: as §1, with “collagen fiber deposition” for “lung index”, “dose by Masson staining-based histopathological analysis” for “dose”; format: functional, organism-based
[11] = tested on: Mus musculus; test: as §1, with “damage” for “index”, “dose by H and E staining-based histopathological analysis” for “dose”; format: functional, organism-based
[12] = tested on: Mus musculus; test: Antifibrotic activity in bleomycin-induced C57BL/6 mouse model of pulmonary fibrosis assessed as reduction in respiratory system resistance at 30 mg/kg, po administered thrice daily for 18 days starting from 10 days post-bleomycin challenge and measured post last dose; format: functional, organism-based
[13] = tested on: Mus musculus; test: Antifibrotic activity in bleomycin-induced C57BL/6 mouse model of pulmonary fibrosis assessed as reduction in lung hydroxyproline level at 30 mg/kg, po administered thrice daily for 18 days starting from 10 days post-bleomycin challenge and measured post last dose; format: functional, organism-based
[14] = tested on: Mus musculus; test: Antifibrotic activity in bleomycin-induced C57BL/6 mouse model of pulmonary fibrosis assessed as reduction in lung fibronectin level at 30 mg/kg, po administered thrice daily for 18 days starting from 10 days post-bleomycin challenge and measured post last dose by Western blot analysis; format: functional, organism-based
[15] = simulated gi fluid, pH 6.5, 1 h
Description: Thermodynamic solubility of the compound in pH 6.5 FaSSIF incubated for 1 hr by LC-MS/MS analysis

[16] = buffer, pH 7.4, 1 h
Description: Thermodynamic solubility of the compound in pH 7.4 PBS incubated for 1 hr by LC-MS/MS analysis

[17] = species on record: Mus musculus; test: Inhibition of class 1 PI3K in mouse Mlg2908 cells assessed as reduction in S6RP phosphorylation measured after 3 hrs by Western blot analysis; format: cell-based
[18] = Half life in ICR mouse at 0.5 mg/kg, iv by LC-MS/SM analysis; format: ADME, organism-based; conditions: in vivo
[19] = Oral bioavailability in ICR mouse at 5 mg/kg by LC-MS/SM analysis; format: ADME, organism-based; conditions: in vivo
[20] = target: PI3K p110 beta/p85 alpha (Homo sapiens, UniProt P42338); test: Inhibition of recombinant human N-terminal FLAG-tagged full-length p110beta/human p85alpha expressed in Sf9 insect cells using PIP2 as substrate by ADP-glo assay
PI3K p110 beta/p85 alpha, sequence (P27986 whole entry): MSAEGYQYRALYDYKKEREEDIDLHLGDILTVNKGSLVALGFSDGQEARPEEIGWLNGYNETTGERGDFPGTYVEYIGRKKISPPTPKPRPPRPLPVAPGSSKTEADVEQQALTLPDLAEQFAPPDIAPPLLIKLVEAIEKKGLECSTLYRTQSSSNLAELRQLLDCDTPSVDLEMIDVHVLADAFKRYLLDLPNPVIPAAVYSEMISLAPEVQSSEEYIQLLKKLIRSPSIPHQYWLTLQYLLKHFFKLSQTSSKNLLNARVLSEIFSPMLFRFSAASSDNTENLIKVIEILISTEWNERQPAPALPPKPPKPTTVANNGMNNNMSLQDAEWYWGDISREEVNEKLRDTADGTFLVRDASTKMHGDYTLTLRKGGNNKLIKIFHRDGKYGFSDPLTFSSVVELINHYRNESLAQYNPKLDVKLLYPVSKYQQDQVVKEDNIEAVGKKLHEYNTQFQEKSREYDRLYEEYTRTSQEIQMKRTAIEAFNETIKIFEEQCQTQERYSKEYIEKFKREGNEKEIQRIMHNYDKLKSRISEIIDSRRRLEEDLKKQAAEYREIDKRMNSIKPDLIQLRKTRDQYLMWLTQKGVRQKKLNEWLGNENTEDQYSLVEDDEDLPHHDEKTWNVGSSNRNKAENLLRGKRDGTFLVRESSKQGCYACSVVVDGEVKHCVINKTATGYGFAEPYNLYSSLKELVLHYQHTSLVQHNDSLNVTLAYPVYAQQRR
PI3K p110 beta/p85 alpha, sequence (P42338 whole entry): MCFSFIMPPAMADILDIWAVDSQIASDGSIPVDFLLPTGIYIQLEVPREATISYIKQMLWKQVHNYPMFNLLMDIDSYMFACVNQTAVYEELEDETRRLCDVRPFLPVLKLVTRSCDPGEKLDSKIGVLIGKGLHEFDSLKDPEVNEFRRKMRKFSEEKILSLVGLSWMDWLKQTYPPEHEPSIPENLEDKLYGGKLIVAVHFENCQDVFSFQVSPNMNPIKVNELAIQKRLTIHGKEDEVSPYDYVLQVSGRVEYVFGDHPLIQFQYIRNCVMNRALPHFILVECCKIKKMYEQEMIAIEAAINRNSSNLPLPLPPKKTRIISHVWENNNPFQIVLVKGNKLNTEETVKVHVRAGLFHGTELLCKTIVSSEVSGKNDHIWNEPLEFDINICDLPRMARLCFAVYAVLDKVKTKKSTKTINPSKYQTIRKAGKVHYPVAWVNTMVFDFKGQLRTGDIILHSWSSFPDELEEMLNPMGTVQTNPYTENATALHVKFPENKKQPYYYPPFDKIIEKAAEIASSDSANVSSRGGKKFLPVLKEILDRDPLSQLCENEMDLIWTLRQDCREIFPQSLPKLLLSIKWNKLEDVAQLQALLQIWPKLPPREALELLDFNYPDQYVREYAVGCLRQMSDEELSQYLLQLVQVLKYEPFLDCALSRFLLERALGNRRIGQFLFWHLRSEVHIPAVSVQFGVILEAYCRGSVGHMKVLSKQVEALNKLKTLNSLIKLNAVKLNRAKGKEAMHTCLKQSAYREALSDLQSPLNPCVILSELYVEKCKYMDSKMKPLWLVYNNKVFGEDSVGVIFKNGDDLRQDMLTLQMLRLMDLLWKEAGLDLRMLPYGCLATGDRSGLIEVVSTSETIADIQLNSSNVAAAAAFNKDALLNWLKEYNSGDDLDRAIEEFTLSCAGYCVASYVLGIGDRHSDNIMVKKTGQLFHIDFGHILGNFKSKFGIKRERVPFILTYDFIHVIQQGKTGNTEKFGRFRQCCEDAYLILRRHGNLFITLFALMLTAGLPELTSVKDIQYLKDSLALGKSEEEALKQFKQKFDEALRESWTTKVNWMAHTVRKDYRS

[21] = Volume of distribution at steady state in ICR mouse at 0.5 mg/kg, iv by LC-MS/SM analysis; format: ADME, organism-based; conditions: in vivo, read-out: Vdss
[22] = species on record: Mus musculus; test: Inhibition of class 1 PI3K in mouse Mlg2908 cells assessed as reduction in AKT phosphorylation at T308 residue measured after 3 hrs by Western blot analysis; format: cell-based
[23] = Cmax in ICR mouse at 5 mg/kg, po by LC-MS/SM analysis; format: ADME, organism-based; parameters: dose 5 mg/kg, route oral; conditions: in vivo
[24] = AUC (0 to infinity) in ICR mouse at 0.5 mg/kg, iv by LC-MS/SM analysis; format: ADME, organism-based; parameters: dose 0.5 mg/kg, time infinity, route intravenous; conditions: in vivo
[25] = target: PI3-kinase p110-delta/p85-alpha (Homo sapiens, UniProt O00329); test: Inhibition of recombinant human N-terminal GST-tagged full-length p110delta/human p85alpha expressed in Sf9 insect cells using PIP2 as substrate by ADP-glo assay
PI3-kinase p110-delta/p85-alpha, sequence (P27986 whole entry, canonical isoform): as the sequence (P27986 whole entry) above
PI3-kinase p110-delta/p85-alpha, sequence (O00329 whole entry, canonical isoform): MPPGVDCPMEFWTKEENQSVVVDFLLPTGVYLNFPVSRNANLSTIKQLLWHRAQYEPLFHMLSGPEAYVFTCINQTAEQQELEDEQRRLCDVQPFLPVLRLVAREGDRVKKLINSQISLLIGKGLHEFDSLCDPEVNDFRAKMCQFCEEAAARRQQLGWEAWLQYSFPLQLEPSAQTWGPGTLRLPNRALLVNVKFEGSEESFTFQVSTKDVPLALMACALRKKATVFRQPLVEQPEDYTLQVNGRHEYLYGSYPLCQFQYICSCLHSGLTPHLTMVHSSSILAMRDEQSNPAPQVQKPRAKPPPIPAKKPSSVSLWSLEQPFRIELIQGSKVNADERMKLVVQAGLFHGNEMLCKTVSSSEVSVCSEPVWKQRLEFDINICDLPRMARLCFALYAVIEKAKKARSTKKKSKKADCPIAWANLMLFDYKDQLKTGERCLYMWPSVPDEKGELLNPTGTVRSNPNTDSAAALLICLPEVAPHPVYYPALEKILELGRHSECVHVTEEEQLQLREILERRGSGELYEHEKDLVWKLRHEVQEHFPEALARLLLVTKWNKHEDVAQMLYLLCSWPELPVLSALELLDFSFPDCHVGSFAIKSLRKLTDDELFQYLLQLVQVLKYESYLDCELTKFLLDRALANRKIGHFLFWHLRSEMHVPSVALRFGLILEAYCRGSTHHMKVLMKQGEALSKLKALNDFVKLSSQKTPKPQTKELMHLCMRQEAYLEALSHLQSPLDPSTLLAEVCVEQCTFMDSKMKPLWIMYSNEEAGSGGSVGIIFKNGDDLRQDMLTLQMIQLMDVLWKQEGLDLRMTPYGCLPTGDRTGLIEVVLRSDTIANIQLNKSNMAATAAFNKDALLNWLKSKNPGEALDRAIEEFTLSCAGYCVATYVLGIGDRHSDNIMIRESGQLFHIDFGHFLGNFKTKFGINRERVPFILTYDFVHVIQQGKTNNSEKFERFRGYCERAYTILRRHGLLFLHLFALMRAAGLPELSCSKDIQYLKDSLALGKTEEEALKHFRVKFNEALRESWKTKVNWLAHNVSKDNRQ

[26] = target: Phosphatidylinositol 4,5-bisphosphate 3-kinase catalytic subunit gamma isoform (Homo sapiens, UniProt P48736); test: Inhibition of recombinant human N-terminal His-tagged full-length p120gamma expressed in Sf9 insect cells using PIP2 as substrate by ADP-glo assay
Phosphatidylinositol 4,5-bisphosphate 3-kinase catalytic subunit gamma isoform, sequence (P48736 whole entry, canonical isoform): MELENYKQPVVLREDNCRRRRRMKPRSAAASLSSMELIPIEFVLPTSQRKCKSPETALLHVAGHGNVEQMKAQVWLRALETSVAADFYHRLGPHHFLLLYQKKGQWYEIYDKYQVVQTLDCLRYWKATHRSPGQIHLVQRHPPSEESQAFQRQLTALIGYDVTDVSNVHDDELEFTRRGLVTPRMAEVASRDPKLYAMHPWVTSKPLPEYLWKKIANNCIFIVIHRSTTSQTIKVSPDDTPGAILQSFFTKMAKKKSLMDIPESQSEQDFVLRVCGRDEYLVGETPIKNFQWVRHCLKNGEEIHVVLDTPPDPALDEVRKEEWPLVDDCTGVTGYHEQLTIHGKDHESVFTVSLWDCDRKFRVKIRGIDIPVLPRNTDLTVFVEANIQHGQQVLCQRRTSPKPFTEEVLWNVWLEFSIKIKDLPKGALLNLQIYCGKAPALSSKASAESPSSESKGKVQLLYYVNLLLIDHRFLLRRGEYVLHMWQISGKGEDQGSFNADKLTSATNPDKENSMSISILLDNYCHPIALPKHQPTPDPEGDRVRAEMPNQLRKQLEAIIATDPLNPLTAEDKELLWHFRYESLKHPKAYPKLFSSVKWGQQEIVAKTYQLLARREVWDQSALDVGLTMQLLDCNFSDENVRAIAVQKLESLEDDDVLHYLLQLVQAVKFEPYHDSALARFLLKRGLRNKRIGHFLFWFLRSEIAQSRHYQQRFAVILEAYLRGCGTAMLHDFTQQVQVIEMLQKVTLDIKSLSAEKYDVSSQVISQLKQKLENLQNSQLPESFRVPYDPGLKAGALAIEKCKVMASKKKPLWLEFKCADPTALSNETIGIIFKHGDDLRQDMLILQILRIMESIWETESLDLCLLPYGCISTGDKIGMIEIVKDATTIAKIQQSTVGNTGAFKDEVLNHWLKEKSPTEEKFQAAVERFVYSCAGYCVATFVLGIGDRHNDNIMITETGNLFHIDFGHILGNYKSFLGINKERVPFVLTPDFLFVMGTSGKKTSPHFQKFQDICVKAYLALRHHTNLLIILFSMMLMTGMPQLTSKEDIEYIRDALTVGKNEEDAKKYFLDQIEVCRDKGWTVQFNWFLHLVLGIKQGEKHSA

[27] = Kinetic solubility of the compound in pH 7.4 incubated for 120 mins by HPLC-MS/MS analysis; conditions: buffer, pH 7.4, 2 h
[28] = Half life in ICR mouse at 5 mg/kg, po by LC-MS/SM analysis; format: ADME, organism-based; conditions: in vivo
[29] = species on record: Mus musculus; test: Inhibition of class 1 PI3K in mouse Mlg2908 cells assessed as reduction in p70S6K phosphorylation measured after 3 hrs by Western blot analysis; format: cell-based
[30] = AUC (0 to infinity) in ICR mouse at 5 mg/kg, po by LC-MS/SM analysis; format: ADME, organism-based; parameters: dose 5 mg/kg, route oral, time infinity; conditions: in vivo
[31] = species on record: Mus musculus; test: Inhibition of class 1 PI3K in mouse Mlg2908 cells assessed as reduction in AKT phosphorylation at S473 residue measured after 3 hrs by Western blot analysis; format: cell-based
[32] = Clearance in ICR mouse at 0.5 mg/kg, iv by LC-MS/SM analysis; format: ADME, organism-based; conditions: in vivo

PI3-kinase p110-alpha/p85-alpha, sequence (P27986 whole entry): as the sequence (P27986 whole entry) above
PI3-kinase p110-alpha/p85-alpha, sequence (P42336 whole entry): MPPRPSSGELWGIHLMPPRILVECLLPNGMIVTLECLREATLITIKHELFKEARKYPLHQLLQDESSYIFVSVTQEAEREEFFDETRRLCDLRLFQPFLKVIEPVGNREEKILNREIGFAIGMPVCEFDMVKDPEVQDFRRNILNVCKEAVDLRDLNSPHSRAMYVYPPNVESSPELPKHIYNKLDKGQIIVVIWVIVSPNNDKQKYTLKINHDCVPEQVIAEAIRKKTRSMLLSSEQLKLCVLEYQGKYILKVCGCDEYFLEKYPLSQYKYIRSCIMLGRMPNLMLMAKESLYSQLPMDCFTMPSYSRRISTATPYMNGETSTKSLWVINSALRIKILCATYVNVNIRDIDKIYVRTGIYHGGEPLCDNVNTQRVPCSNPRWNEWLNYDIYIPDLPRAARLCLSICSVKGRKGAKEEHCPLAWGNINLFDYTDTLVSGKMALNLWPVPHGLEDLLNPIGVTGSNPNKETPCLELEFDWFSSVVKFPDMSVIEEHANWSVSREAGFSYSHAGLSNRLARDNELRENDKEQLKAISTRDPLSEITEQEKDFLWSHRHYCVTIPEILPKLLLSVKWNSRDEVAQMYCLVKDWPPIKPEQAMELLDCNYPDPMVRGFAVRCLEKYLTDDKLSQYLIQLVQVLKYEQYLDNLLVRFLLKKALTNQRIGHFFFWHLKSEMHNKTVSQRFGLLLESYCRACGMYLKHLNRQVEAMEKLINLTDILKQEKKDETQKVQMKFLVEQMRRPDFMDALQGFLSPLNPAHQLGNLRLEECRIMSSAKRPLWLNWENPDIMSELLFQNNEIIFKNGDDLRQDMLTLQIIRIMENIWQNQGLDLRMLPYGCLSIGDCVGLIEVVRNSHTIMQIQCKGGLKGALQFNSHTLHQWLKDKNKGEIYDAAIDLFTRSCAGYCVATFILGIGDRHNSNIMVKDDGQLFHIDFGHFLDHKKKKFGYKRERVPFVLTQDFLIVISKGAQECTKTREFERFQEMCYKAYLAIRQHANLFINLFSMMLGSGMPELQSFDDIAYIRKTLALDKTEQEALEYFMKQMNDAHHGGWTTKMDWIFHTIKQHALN

Row | Compound | Papp A→B at 1.5 h [1] | IC50 [2] | Papp B→A at 1.5 h [3] | IC50 [4] | also measured
1 | COc1ncc(-c2cc(OC3CCN(C)CC3)c3ncnc(C)c3c2)cc1NS(=O)(=O)c1ccc(F)cc1F | 4.5 ×10⁻⁶ cm/s | 2.1 nM | 46 ×10⁻⁶ cm/s | 230 nM | 
2 | COc1ncc(-c2cc(OC(C)C)c3ncnc(C)c3c2)cc1NS(=O)(=O)c1ccc(F)cc1F | 32 ×10⁻⁶ cm/s | 2 nM | 22 ×10⁻⁶ cm/s | 13 nM | 
3 | COc1ncc(-c2cc(OC3CCCCC3)c3ncnc(C)c3c2)cc1NS(=O)(=O)c1ccc(F)cc1F | 16 ×10⁻⁶ cm/s | 1.5 nM | 21 ×10⁻⁶ cm/s | 33 nM | 
4 | COc1ncc(-c2cc(OC3CCOC(C)(C)C3)c3ncnc(C)c3c2)cc1NS(=O)(=O)c1ccc(F)cc1F (configuration not stated) | 31 ×10⁻⁶ cm/s | 0.89 nM | 22 ×10⁻⁶ cm/s | 2 nM | 
5 | COc1ncc(-c2cc(OC)c3ncnc(C)c3c2)cc1NS(=O)(=O)c1ccc(F)cc1F | 35 ×10⁻⁶ cm/s | 1.2 nM | 31 ×10⁻⁶ cm/s | 130 nM | 
6 | COc1ncc(-c2cc(OCCN(C)C)c3ncnc(C)c3c2)cc1NS(=O)(=O)c1ccc(F)cc1F | 10 ×10⁻⁶ cm/s | 5.3 nM | 51 ×10⁻⁶ cm/s | 460 nM | 
7 | COc1ncc(-c2cc(OC(F)F)c3ncnc(C)c3c2)cc1NS(=O)(=O)c1ccc(F)cc1F | 34 ×10⁻⁶ cm/s | 1.7 nM | 17 ×10⁻⁶ cm/s | 130 nM | 
8 | COc1ncc(-c2cc(OC3CCOCC3)c3nc(N)nc(C)c3c2)cc1NS(=O)(=O)c1ccc(F)cc1F |  |  |  | 140 nM | 
9 | COc1ncc(-c2cc(OCCN3CCOCC3)c3ncnc(C)c3c2)cc1NS(=O)(=O)c1ccc(F)cc1F | 13 ×10⁻⁶ cm/s | 2.3 nM | 33 ×10⁻⁶ cm/s | 210 nM | 
10 | COc1ncc(-c2cc(OCC3CCN(C)CC3)c3ncnc(C)c3c2)cc1NS(=O)(=O)c1ccc(F)cc1F | 8.8 ×10⁻⁶ cm/s | 1.6 nM | 38 ×10⁻⁶ cm/s | 81 nM | 
11 | Cc1ccc(=O)n(-c2ccccc2)c1 |  |  |  |  | Activity [5]: Active; Activity [6]: Active; Activity [7]: Active; Activity [8]: Active; Activity [9]: Active; Activity [10]: Active; Activity [11]: Active; Activity [12]: Active; Activity [13]: Active; Activity [14]: Active
12 | Cc1nc(NC(=O)N2CCC[C@H]2C(N)=O)sc1-c1ccnc(C(C)(C)C(F)(F)F)c1 [ALPELISIB] |  |  |  | 3500 nM | 
13 | COc1ccc(-c2cc(OC3CCOCC3)c3ncnc(C)c3c2)cn1 | 39 ×10⁻⁶ cm/s | 31 nM | 31 ×10⁻⁶ cm/s | 17000 nM | 
14 | COc1ncc(-c2cc(OCCN3CCCC3)c3ncnc(C)c3c2)cc1NS(=O)(=O)c1ccc(F)cc1F | 7.5 ×10⁻⁶ cm/s | 6.8 nM | 38 ×10⁻⁶ cm/s | 1300 nM | 
15 | COc1ncc(-c2cc(OC3CCOCC3)c3ncnc(C)c3c2)cc1NS(=O)(=O)c1ccc(F)cc1F | 42 ×10⁻⁶ cm/s | 0.6 nM | 39 ×10⁻⁶ cm/s | 3 nM | Therm_solubility [15]: Soluble; Therm_solubility [16]: Soluble; inhibition [17]: Dose-dependent effect; half-life [18]: 0.92 h; bioavailability [19]: 15.8%; IC50 [20]: 0.54 nM; Vd [21]: 0.368 L/kg; inhibition [22]: Dose-dependent effect; Cmax [23]: 1210 ng/mL; AUC(0-inf) [24]: 1820 ng·h/mL; IC50 [25]: 0.52 nM; IC50 [26]: 2.1 nM; Kinetic_solubility [27]: Soluble; half-life [28]: 5.57 h; inhibition [29]: Dose-dependent effect; AUC(0-inf) [30]: 3240 ng·h/mL; inhibition [31]: Dose-dependent effect; clearance [32]: 4.58 mL/min/kg
16 | C[C@H](NC(=O)c1c(N)nn2cccnc12)c1cc2cccc(C#Cc3cnn(C)c3)c2c(=O)n1-c1ccccc1 [EGANELISIB] |  |  |  | 980 nM | 
17 | COc1ncc(-c2cc(OC3CCC3)c3ncnc(C)c3c2)cc1NS(=O)(=O)c1ccc(F)cc1F | 44 ×10⁻⁶ cm/s | 1 nM | 30 ×10⁻⁶ cm/s | 3 nM | 
18 | COc1ncc(-c2cc(OCC3CCOC3)c3ncnc(C)c3c2)cc1NS(=O)(=O)c1ccc(F)cc1F (configuration not stated) | 34 ×10⁻⁶ cm/s | 0.95 nM | 39 ×10⁻⁶ cm/s | 4 nM | 
19 | COc1ncc(-c2ccc3nccc(-c4ccnnc4)c3c2)cc1NS(=O)(=O)c1ccc(F)cc1F [OMIPALISIB] |  |  |  | 4 nM | 
20 | COc1ncc(-c2cc(O[C@@H]3CCOC3)c3ncnc(C)c3c2)cc1NS(=O)(=O)c1ccc(F)cc1F | 38 ×10⁻⁶ cm/s | 0.88 nM | 37 ×10⁻⁶ cm/s | 10 nM | inhibition [17]: Dose-dependent effect; half-life [18]: 0.36 h; bioavailability [19]: 58.7%; IC50 [20]: 0.34 nM; Vd [21]: 0.5 L/kg; inhibition [22]: Dose-dependent effect; Cmax [23]: 1440 ng/mL; AUC(0-inf) [24]: 520 ng·h/mL; IC50 [25]: 0.35 nM; IC50 [26]: 1.5 nM; half-life [28]: 4.08 h; inhibition [29]: Dose-dependent effect; AUC(0-inf) [30]: 3170 ng·h/mL; inhibition [31]: Dose-dependent effect; clearance [32]: 16 mL/min/kg
21 | Cc1c(Cn2c(C)nc3c(C(=O)O)cc(N4CCOCC4)cc32)cccc1C(F)(F)F [GSK-2636771] |  |  |  | > 20000 nM | 
22 | COc1ncc(-c2cc(OCC3CC3)c3ncnc(C)c3c2)cc1NS(=O)(=O)c1ccc(F)cc1F | 30 ×10⁻⁶ cm/s | 1.5 nM | 23 ×10⁻⁶ cm/s | 20 nM | 
23 | COc1ncc(-c2cc(OC3CCCC3)c3ncnc(C)c3c2)cc1NS(=O)(=O)c1ccc(F)cc1F | 28 ×10⁻⁶ cm/s | 1 nM | 17 ×10⁻⁶ cm/s | 15 nM | 
24 | CC[C@H](Nc1ncnc2[nH]cnc12)c1nc2cccc(F)c2c(=O)n1-c1ccccc1 [IDELALISIB] |  |  |  | > 20000 nM | 
25 | COc1ncc(-c2cc(OCC3CCOCC3)c3ncnc(C)c3c2)cc1NS(=O)(=O)c1ccc(F)cc1F | 31 ×10⁻⁶ cm/s | 0.92 nM | 33 ×10⁻⁶ cm/s | 8 nM | 
26 | C[C@H](Nc1ncnc2nc[nH]c12)c1cc2cccc(Cl)c2c(=O)n1-c1ccccc1 [DUVELISIB] |  |  |  | 6900 nM | 
